PubChem BioAssay (NCI)
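Grown in 96-well plates, cells were treated for 48 hours with each compound at five concentrations. Insufficient inhibition: endpoint recorded as highest concentration tested. At the GI50, growth is halved. At the TGI there is no net growth.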

Assays:
Assay in all cases: NCI tumour cell line growth inhibition, 48 h
KM12 colon = tested on: KM12 colon
HOP-62 NSCLC = tested on: HOP-62 NSCLC
EKVX NSCLC = tested on: EKVX NSCLC
HCT-15 colon = tested on: HCT-15 colon
MDA-MB-231 breast = tested on: MDA-MB-231 breast
OVCAR-3 ovarian = tested on: OVCAR-3 ovarian
TK-10 renal = tested on: TK-10 renal
CAKI-1 renal = tested on: CAKI-1 renal
RPMI-8226 leukemia = tested on: RPMI-8226 leukemia
NCI-H522 lung = tested on: NCI-H522 lung
PC-3 prostate = tested on: PC-3 prostate
UACC-257 melanoma = tested on: UACC-257 melanoma
HOP-92 NSCLC = tested on: HOP-92 NSCLC
SK-MEL-5 melanoma = tested on: SK-MEL-5 melanoma
BT-549 breast = tested on: BT-549 breast
K-562 leukemia = tested on: K-562 leukemia
HCT-116 colon = tested on: HCT-116 colon
NCI-H23 lung = tested on: NCI-H23 lung
LOX IMVI melanoma = tested on: LOX IMVI melanoma
COLO 205 colon = tested on: COLO 205 colon
T-47D breast = tested on: T-47D breast
HS 578T breast = tested on: HS 578T breast
NCI/ADR-RES ovarian = tested on: NCI/ADR-RES ovarian
OVCAR-5 ovarian = tested on: OVCAR-5 ovarian
NCI-H460 lung = tested on: NCI-H460 lung
OVCAR-8 ovarian = tested on: OVCAR-8 ovarian
SN12C renal = tested on: SN12C renal
SF-268 CNS = tested on: SF-268 CNS

## CN1CCN(Cc2ccc(NC(=O)c3cncc(C#Cc4cnc(N)c5cccnc45)c3)cc2C(F)(F)F)CC1
KM12 colon
  GI50: 69 nM
  TGI: > 50000 nM
HOP-62 NSCLC
  GI50: 498 nM
  TGI: > 19100 nM
EKVX NSCLC
  GI50: 1360 nM
  TGI: > 50000 nM
HCT-15 colon
  GI50: 1850 nM
  TGI: > 50000 nM
MDA-MB-231 breast
  GI50: 137 nM
  TGI: 975 nM
OVCAR-3 ovarian
  GI50: 589 nM
  TGI: > 50000 nM
TK-10 renal
  GI50: 1330 nM
  TGI: > 50000 nM
CAKI-1 renal
  TGI: > 50000 nM
RPMI-8226 leukemia
  GI50: 603 nM
  TGI: > 50000 nM
NCI-H522 lung
  GI50: 290 nM
  TGI: > 50000 nM
PC-3 prostate
  GI50: 665 nM
  TGI: > 50000 nM
UACC-257 melanoma
  GI50: 273 nM
  TGI: > 50000 nM
HOP-92 NSCLC
  GI50: 148 nM
  TGI: 1160 nM
SK-MEL-5 melanoma
  GI50: 571 nM
  TGI: 2130 nM
BT-549 breast
  GI50: 1480 nM
  TGI: > 50000 nM
K-562 leukemia
  GI50: 5 nM
  TGI: > 50000 nM
HCT-116 colon
  GI50: 224 nM
  TGI: 6600 nM
NCI-H23 lung
  GI50: 496 nM
  TGI: > 50000 nM
LOX IMVI melanoma
  GI50: 159 nM
  TGI: 686 nM
COLO 205 colon
  GI50: 95.6 nM
  TGI: 1120 nM
T-47D breast
  GI50: 360 nM
  TGI: > 50000 nM
HS 578T breast
  GI50: 196 nM
  TGI: 1610 nM
NCI/ADR-RES ovarian
  GI50: > 50000 nM
  TGI: > 50000 nM
OVCAR-5 ovarian
  GI50: 537 nM
  TGI: > 50000 nM
NCI-H460 lung
  GI50: 272 nM
  TGI: > 50000 nM
OVCAR-8 ovarian
  GI50: 397 nM
  TGI: > 50000 nM
SN12C renal
  GI50: 311 nM
  TGI: > 50000 nM
SF-268 CNS
  GI50: 466 nM
  TGI: > 50000 nM
